From US8901116B2, “Method for treating pain, anxiety or depression using carbamoyloxy alkanoyl piperazine compound” (SK Biopharmaceuticals Co., Ltd., priority 2007, dated 2014)
Where a name gives a salt, the structure may show the parent alone.

What was measured:
Format in all cases: in vivo
male ICR mouse [1] = experiment: Acetic acid-induced writhing test in mouse; conditions: po, p.o, acetic acid i.p. 1 hour after dosing, writhing counted for 10 minutes, read-out: Writhing Test Suppression of pain response
Procedure: An acetic acid-induced writhing test is one of models for measuring an analgesic effect of drugs. A test material dissolved in a suitable vehicle was orally administered to a male ICR mouse weighing 30 to 35 g at an amount of 10 mg/kg. After 1 hour of the oral administration, […] of an aqueous 0.8% acetic acid solution was intraperitoneally injected into the male ICR mouse to induce the abdominal pain of the male ICR mouse. Right after the administration of acetic acid, the male ICR mouse was put into an empty cage, and the number of writhing behaviors of the mice was counted for 10 minutes. The term “writhing” represents a reflex action in which the mouse overtly extends its abdomen by stretching its hind legs due to the abdominal pain. The analgesic effect of the test material is represented by the ‘suppression of pain response’ {[(Writhing number of vehicle-administered group−Writhing number of Test material—administered group)/(Writhing number of Solvent-administered group)]×100%}.

male ICR mouse [2] = experiment: Hot plate test in mouse; conditions: po, p.o, 1 hour after dosing, hot plate 55° C., read-out: Hot Plate Test Increase in latency of avoidance response
Procedure: A hot plate test is one of representative models for measuring an analgesic effect of drugs. A test material dissolved in a suitable vehicle was orally administered to a male ICR mouse weighing 25 to 30 g at an amount of 30 mg/kg. After 1 hour of the oral administration, the mouse was put on a hot plate (55° C.). A latency was recorded from the time right after a mouse is put on a hot plate to the time when avoidance responses (flinching, licking, jumping, etc.) to pain are observed from forefeet or rear legs of the mouse. The analgesic effect of the test material is represented by the ‘Increase in latency of avoidance response’ {[(Latency of avoidance response to pain of Test material-administered group−Latency of avoidance response to pain of vehicle-administered group)/(Latency of avoidance response to pain of Solvent-administered group)]×100%}.

male ICR mouse [3] = experiment: Elevated plus maze (EPM) test in mouse; conditions: po, p.o, 1 hour after dosing, 5 minutes observation, read-out: Elevated Plus Maze Change index in Open-Arm Time
From the text: Elevated plus maze (EPM) is one of representative models that examine an anti-anxiety activity of a test material. Equipment used for an EPM test has a crossroad shape raised in a high position off the ground, and is configured in such a cliff shape that both sides of one road are protected with high walls and the other road is free from the wall. Among them, the road in the cliff shape is referred to as an ‘open arm,’ and the road protected by the walls is referred to as a ‘close arm.’ In this case, a level of the anxiety of a mouse may be measured by determining in which arm the mouse stays longer. In general, the mouse stays longer in the close arm than the open arm, but a mouse treated with a medicine showing an anti-anxiety effect stays relatively longer in the open arm. A test material dissolved in a suitable vehicle was orally administered to a male ICR mouse weighing 20 to 25 g at an amount of 10 mg/kg. After 1 hour of the oral administration, the mouse was put on the center of an EPM equipment to measure how long the mouse stays in the open arm within a time range of 5 minutes. The anti-anxiety effect of the test material is represented by the ‘Change index in Open-Arm Time’ {[(open arm duration in test material-administered group−open arm duration in vehicle-administered group)/(open arm duration in vehicle administered group)]×100%}.

male ICR mouse [4] = experiment: Head twitch potentiation induced by 5-HTP (5-HTP potentiation test) in mouse; conditions: po, 0.5 h, p.o, 5-HTP 80 mg/kg + Carbidopa 25 mg/kg i.p. 30 minutes after dosing, head twitches counted for 2 minutes, negative = 5-HT2A antagonist, read-out: 5-HTP Potentiation Increase rate in Head Twitch No.
Procedure: When 5-hydroxy-L-tryptophan (5-HTP) is administered into a mouse, a head twitch phenomenon is observed since serotonin is increasingly secreted in the mouse. […] By using this principle, it is possible to search an effect of the representative antidepressant agent. A test material dissolved in a suitable vehicle was orally administered to a male ICR mouse weighing 20 to 25 g at an amount of 30 mg/kg. After 30 minutes of the oral administration, 5-HTP (80 mg/kg) and 5-HTP peripheral decarbozylase inhibitor ‘Carbidopa’ (25 mg/kg) were intraperitoneally administered to the mouse. After 30 minutes of the intraperitoneal administration, the mouse was put into an observation cage, and head twitches of the mouse were counted for 2 minutes. The anti-depression effect of the test material is represented by the ‘Increase rate in Head Twitch No.’ {[(Head Twitch No. of Test material-administered group−Head Twitch No. of vehicle-administered group)/(Head Twitch No. of vehicle-administered group)]×100%}. […] In addition to the selective serotonin reuptake inhibitor (SSRI) that has been widely used as an antidepressant agent in the clinical fields, it was tested that 5-HT2A antagonists such as nefazodone and trazodone also have an antidepressant effect.

Compound	inhibition in vivo at 10 mg/kg (male ICR mouse [1]) [%]	change in vivo at 30 mg/kg (male ICR mouse [2]) [%]	change in vivo at 10 mg/kg (male ICR mouse [3]) [%]	change in vivo at 30 mg/kg (male ICR mouse [4]) [%]
NC(=O)OC(CC(=O)N1CCN(c2ccc(F)c(F)c2)CC1)c1ccccc1 (centres unmarked) [Example 33, carbamic acid 3-[4-(3,4-difluoro-phenyl)-piperazin-1-yl]-3-oxo-1-phenyl-propyl ester]	74.5	43.6	–	–
COc1ccc(N2CCN(C(=O)CC(OC(N)=O)c3ccccc3)CC2)cc1 (centres unmarked) [Example 2, carbamic acid 3-[4-(4-methoxy-phenyl)-piperazin-1-yl]-3-oxo-1-phenyl-propyl ester]	54.6	37.5	–	–
NC(=O)OC(CC(=O)N1CCN(c2ccccc2)CC1)c1cc(C(F)(F)F)cc(C(F)(F)F)c1 (centres unmarked) [Example 55, carbamic acid 1-(3,5-trifluoromethyl-phenyl)-3-oxo-3-(4-phenyl-piperazin-1-yl)-propyl ester]	32.8	13.9	13.8	22.5
CCOc1ccc(N2CCN(C(=O)C[C@@H](OC(N)=O)c3ccccc3)CC2)cc1 [Example 63, (R)-carbamic acid 3-[4-(4-ethoxy-phenyl)-piperazin-1-yl]-3-oxo-1-phenyl-propyl ester]	59.8	15.2	25	19.5
NC(=O)O[C@@H](CC(=O)N1CCN(c2ccc(F)cc2)CC1)c1ccccc1 [Example 79, (S)-carbamic acid 3-[4-(4-fluoro)-phenylpiperazin-1-yl]-3-oxo-1-phenyl-propyl ester]	40.7	29.3	-5.1	-30
COc1ccc(N2CCN(C(=O)CC(OC(N)=O)c3ccccc3)CC2)cc1OC (centres unmarked) [Example 5, carbamic acid 3-[4-(3,4-dimethoxy-phenyl)-piperazin-1-yl]-3-oxo-1-phenyl-propyl ester]	79.7	39.2	–	–
COc1ccc(N2CCN(C(=O)CCC(OC(N)=O)c3ccccc3)CC2)cc1OC (centres unmarked) [Example 41, carbamic acid 4-[4-(3,4-dimethoxy-phenyl)-piperazin-1-yl]-4-oxo-1-phenyl-butyl ester]	31.2	28.7	–	–
NC(=O)OC(CC(=O)N1CCN(c2ccccc2)CC1)c1cc(F)ccc1F (centres unmarked) [Example 57, carbamic acid 1-(2,5-difluoro-phenyl)-3-oxo-3-(4-phenyl-piperazin-1-yl)-propyl ester]	34.5	11.2	88.8	27.9
COc1ccc(N2CCN(C(=O)CC(OC(N)=O)c3ccc(C(F)(F)F)cc3)CC2)cc1OC (centres unmarked) [Example 35, carbamic acid 3-[4-(3,4-dimethoxy-phenyl)-piperazin-1-yl]-3-oxo-1-(4-trifluoromethyl-phenyl)-propyl ester; hydrochloride]	33.8	32.8	44	64.3
COc1ccc(N2CCN(C(=O)CC(OC(N)=O)c3ccc(F)cc3)CC2)cc1OC (centres unmarked) [Example 7, carbamic acid 3-[4-(3,4-dimethoxy-phenyl)-piperazin-1-yl]-1-(4-fluoro-phenyl)-3-oxo-propyl ester]	40.9	14.7	–	–
COc1ccc(N2CCN(C(=O)C[C@H](OC(N)=O)c3ccccc3)CC2)cc1OC [Example 65, (S)-carbamic acid 3-[4-(3,4-dimethoxy-phenyl)-piperazin-1-yl]-3-oxo-1-phenyl-propyl ester]	–	38.6	74.7	91.6
NC(=O)OC(CC(=O)N1CCN(c2ccccc2)CC1)c1ccccc1[N+](=O)[O-] (centres unmarked) [Example 42, carbamic acid 1-(2-nitro-phenyl)-3-oxo-3-(4-phenyl-piperazin-1-yl)-propyl ester]	–	–	27.3	33.3
NC(=O)OC(CC(=O)N1CCN(c2ncccn2)CC1)c1ccccc1 (centres unmarked) [Example 25, carbamic acid 3-oxo-1-phenyl-3-(4-pyrimidin-2-yl-piperazin-1-yl)-propyl ester]	59.3	15.9	–	–
COc1ccc(N2CCN(C(=O)C[C@H](OC(N)=O)c3ccccc3)CC2)cc1 [Example 69, (S)-carbamic acid 3-[4-(4-methoxy-phenyl)-piperazin-1-yl]-3-oxo-1-phenyl-propyl ester]	–	22.9	57.3	-14.3
NC(=O)OC(CC(=O)N1CCN(c2ccccn2)CC1)c1ccccc1 (centres unmarked) [Example 24, carbamic acid 3-oxo-1-phenyl-3-(4-pyridin-2-yl-piperazin-1-yl)-propyl ester]	61.2	28.1	–	–
NC(=O)OC(CC(=O)N1CCN(c2ccc(Cl)cc2)CC1)c1ccccc1 (centres unmarked) [Example 38, carbamic acid 3-[4-(4-chloro-phenyl)-piperazin-1-yl]-3-oxo-1-phenyl-propyl ester]	66.1	38.3	–	–
COc1ccc(N2CCN(C(=O)CC(OC(N)=O)c3ccc(C)cc3)CC2)cc1OC (centres unmarked) [Example 8, carbamic acid 3-[4-(3,4-dimethoxy-phenyl)-piperazin-1-yl]-3-oxo-1-p-tolyl-propyl ester]	30.1	10.9	–	–
COc1ccc(C(CC(=O)N2CCN(c3ccccc3)CC2)OC(N)=O)cc1 (centres unmarked) [Example 15, carbamic acid 1-(4-methoxy-phenyl)-3-oxo-3-(4-phenyl-piperazin-1-yl)-propyl ester]	35.1	17.9	–	–
NC(=O)OC(CC(=O)N1CCN(c2ncc(Cl)cc2Cl)CC1)c1ccccc1 (centres unmarked) [Example 26, carbamic acid 3-[4-(3,5-dichloro-pyridin-2-yl)-piperazin-1-yl]-3-oxo-1-phenyl-propyl ester]	30.8	20.6	–	–
NC(=O)OC(CC(=O)N1CCN(c2ccc3c(c2)OCO3)CC1)c1ccccc1 (centres unmarked) [Example 14, carbamic acid 3-(4-benzo[1,3]dioxol-5-yl-piperazin-1-yl)-3-oxo-1-phenyl-propyl ester]	64	17.8	–	–
COc1ccc(N2CCN(C(=O)CC(OC(N)=O)c3ccccc3)CC2)c(OC)c1 (centres unmarked) [Example 9, carbamic acid 3-[4-(2,4-dimethoxy-phenyl)-piperazin-1-yl]-3-oxo-1-phenyl-propyl ester]	33.1	16.4	–	–
COc1ccc(N2CCN(C(=O)CC(OC(N)=O)c3ccc(Cl)cc3)CC2)cc1OC (centres unmarked) [Example 6, carbamic acid 1-(4-chloro-phenyl)-3-[4-(3,4-dimethoxy-phenyl)-piperazin-1-yl]-3-oxo-propyl ester]	44.8	11	–	–
